Test results: a melting point compilation (Tetko et al.)

`COC1=C(C(C)(C)C(C)C)C(=O)C(=O)c2ccccc21` showed a melting point of 93.3 to 93.6 °C. Work on `CCCS(=O)CCC` yielded a melting point of 22.5 °C. `CC1NC(C(=O)O)C(C)(C)S1` (mixture of isomers) gave a melting point of 166 to 168 °C. `Nc1nsc(-c2ccc(Cl)cc2)n1` gave a melting point of 201 to 202 °C. Compound `NCP(=O)(O)O` has a melting point of 300 °C. For `COc1cc(O)ccc1Br`, the melting point was 79 °C. For `C[C@H](OC(=O)Nc1ccccc1)C(=O)O`, the melting point was 137 to 142 °C. For `CN(C)c1ccc(C2C(C#N)=C(N)SC(N)=C2c2nc3ccccc3s2)cc1` (configuration not stated), the melting point was 211 °C. `FC(F)(F)C(F)(F)C(F)(F)C(F)(F)C(F)(F)C(F)(F)C(F)(F)C(F)(F)I` showed a melting point of 37 °C. `O=[N+]([O-])c1cc(C=NO)ccc1C=NO` gave a melting point of 175 to 176 °C. For `CC1(C)C(=O)OC2=C(CC3C4CC=C5CC(O)CCC5(C)C4CCC23C)C1c1ccccc1` (configuration not stated), the melting point was 230 to 235 °C. Compound `CCCCCCCC(=O)Cl` has a melting point of -63 °C. Work on `O=C(Cc1ccccc1)c1ccc(Br)cc1` yielded a melting point of 111 °C. Compound `CC(C)(c1cc(Cl)c(O)c(Cl)c1)c1cc(Cl)c(O)c(Cl)c1` has a melting point of 135 °C. In the case of `Oc1cc(O)cc(Cl)c1`, the melting point is reported as 118 °C. For `CC(N)C(O)c1cccc(O)c1` (configuration not stated), the melting point was 108 °C. Work on `CC(=O)N1CCN(c2ccc(O)cc2)CC1` yielded a melting point of 183 °C. Work on `COc1ccc(C(O)(c2ccc(OC)cc2)c2ccc(OC)cc2)cc1` yielded a melting point of 79 °C. In the case of `O=C(O)c1ncc[nH]1`, the melting point is reported as 198 °C. `O=S1(=O)CCCCO1` gave a melting point of 13.5 °C. `O=S(=O)(N(c1ccccn1)S(=O)(=O)C(F)(F)F)C(F)(F)F` showed a melting point of 39 °C. Compound `CCOC(=O)C(C)OC(=O)c1cc(Oc2ccc(C(F)(F)F)cc2Cl)ccc1[N+](=O)[O-]` (configuration not stated) has a melting point of 45 °C. With `CCn1c(C)nc([N+](=O)[O-])c1I` the melting point was 210 to 212 °C. Compound `O=C(O)c1ccc(S)cc1` has a melting point of 219 °C. With `N#C/C(=C\c1ccc(Cl)cc1Cl)c1nc(-c2cccc3ccccc23)cs1` the melting point was 132 °C. `CCOC(=O)CSc1c(C)[nH]c2ccccc12` showed a melting point of 72 to 75 °C. With `Cc1ccc([N+](=O)[O-])c2ccccc12` the melting point was 71.5 °C. `OCc1sc(-c2ccccc2)nc1-c1ccccc1` gave a melting point of 125 °C. `COC(=O)c1cc(I)cc(C(=O)OC)c1` showed a melting point of 105 to 107 °C. Compound `OCc1cccc(-c2ccccc2)c1` has a melting point of 55 °C. Work on `NC(CS(=O)(=O)c1ccccc1)=NO` yielded a melting point of 162 °C. With `CCCC1COC(Cn2cncn2)(c2ccc(Cl)cc2Cl)O1` (configuration not stated) the melting point was less than 25 °C. `C=C(C)C(=O)OCC(C)C` showed a melting point of -37 °C. `COc1ccc(CC(=O)C(=O)O)cc1` gave a melting point of 194 °C. In the case of `O=Nc1c(O)ccc2ccccc12`, the melting point is reported as 110 °C. For `C[N+](C)(C)CC(O)CC(=O)[O-]` (configuration not stated), the melting point was 208 to 212 °C. For `CC12CCC3C4CCC(=O)C(O)=C4CCC3C1CCC2O` (configuration not stated), the melting point was 189 °C. For `O=C(Nc1ccccc1)N(C(=O)C1Cc2ccccc21)c1ccccc1` (configuration not stated), the melting point was 158 °C. For `Brc1c(Br)c(Br)c2c(c1Br)Oc1c(Br)c(Br)c(Br)c(Br)c1O2`, the melting point was 376 °C. In the case of `ON=Cc1c[nH]cn1`, the melting point is reported as 182 °C. In the case of `O=C(O)c1cc(S(=O)(=O)F)ccc1Cl`, the melting point is reported as 148 to 151 °C. `CCCCCOC(=O)CCCCC` gave a melting point of -47 °C. `Cc1cc(Cl)cc(Cl)c1` showed a melting point of 26 °C. `CCS(=O)(=O)c1cccnc1S(=O)(=O)NC(=O)Nc1nc(OC)cc(OC)n1` showed a melting point of 177 °C. For `O=C(C1CCNCC1)N1CCCCCC1`, the melting point was 41 to 47 °C. Work on `O=C(N[C@@H](Cc1ccc(Br)cc1)C(=O)O)OCC1c2ccccc2-c2ccccc21` yielded a melting point of 152 °C. With `CCC(C=O)(CC)CCC#N` the melting point was 97 °C. For `OC(CCN1CCCCC1)(c1ccccc1)c1ccccc1`, the melting point was 120 °C. With `CCCCC1CO1` (configuration not stated) the melting point was 94 °C. For `CCOC(=O)C1(c2ccccc2)CCN(C)CC1`, the melting point was 270 °C. Work on `Cc1ncc(C=O)n1C` yielded a melting point of 76 to 77 °C. `Cc1c(CN2CCOC(c3ccccc3)C2C)c(=O)n(-c2ccccc2)n1C` (configuration not stated) gave a melting point of 149 °C.
